# Source: patent US6706880B2 (Research Triangle Institute, priority 1990, dated 2004)
# Structures can show the parent of a compound that is named as a salt. Where two headings read alike, the source gives them in different places.
# Columns and labels:
# serotonin transporter = target: T1, serotonin transporter (Rattus norvegicus, UniProt P31652); assay: Inhibition of [3H]paroxetine radioligand binding at the serotonin transporter
# T1 construct: from tissue
# From the text: (§1) Illustrative in vitro assays for binding are described in Boja et al Ann. NY Acad. Sci. 654:282-291 (1992), which is incorporated herein by reference in its entirety. […] Alternatively, the compounds may be analyzed by their ability to inhibit reuptake of a labelled neurotransmitter in a sample, in particular, in synaptosomes.
# [1] = target: norepinephrine transporter (UniProt Q9WTR4); assay: Inhibition of [3H]nisoxetine radioligand binding at the norepinephrine transporter
# From the text: as §1
# dopamine transporter = dopamine transporter (UniProt P23977); format: binding
# From the text: as §1
# [2] = 5-HT IC50 for inhibition of radioligand binding, 5-HT=[3H] paroxetine
# [3] = read-out: NEN IC50 for inhibition of radioligand binding, NEN=[3H] nisoxetine
# [4] = read-out: DA IC50 for inhibition of radioligand binding, DA=[3H]WIN 35,428
# [5] = 5-HT=[3H] paroxetine, read-out: 5-HT IC50 for inhibition of radioligand binding
# [6] = IC50 5-HT [3H]-paroxatine, Table II
# [7] = read-out: IC50 NE [3H]-nisoxetine, Table II
# [8] = IC50 5-HT [3H]-paroxetine, Table IV
# [9] = read-out: IC50 NE [3H]-nisoxetine, Table IV
# [10] = read-out: IC50 DA [3H]-WIN 35,428, Table IV
# T1 sequence (P31652 whole entry): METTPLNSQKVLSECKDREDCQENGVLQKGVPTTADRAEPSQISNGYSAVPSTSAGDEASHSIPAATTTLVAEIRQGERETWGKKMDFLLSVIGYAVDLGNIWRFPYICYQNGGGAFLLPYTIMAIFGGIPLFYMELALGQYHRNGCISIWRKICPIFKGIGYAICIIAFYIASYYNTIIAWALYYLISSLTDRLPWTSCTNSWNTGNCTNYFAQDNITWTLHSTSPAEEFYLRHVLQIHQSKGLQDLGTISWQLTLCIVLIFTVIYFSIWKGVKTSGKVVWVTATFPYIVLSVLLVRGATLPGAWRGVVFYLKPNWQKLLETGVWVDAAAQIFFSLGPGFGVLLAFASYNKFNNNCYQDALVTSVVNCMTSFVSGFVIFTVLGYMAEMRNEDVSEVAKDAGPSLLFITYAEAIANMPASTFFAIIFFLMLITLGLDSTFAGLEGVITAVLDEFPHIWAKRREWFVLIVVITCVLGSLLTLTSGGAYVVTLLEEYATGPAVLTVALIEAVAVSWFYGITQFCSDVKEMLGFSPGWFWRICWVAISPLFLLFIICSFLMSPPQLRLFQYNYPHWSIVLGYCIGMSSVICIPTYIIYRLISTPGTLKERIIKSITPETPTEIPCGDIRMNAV
SMILES,IC50 (serotonin transporter; [2]) [nM],"IC50 [1, 3] [nM]",IC50 (dopamine transporter; [4]) [nM],also measured
CN1C2CCC1C(c1nc(-c3ccc(Br)cc3)no1)C(c1ccc(Cl)cc1)C2 (centres unmarked) [RTI-4229-144],106,1820,3.44,–
CC(C)OC(=O)C1C2CCC(CC1c1ccc(I)cc1)N2 (centres unmarked) [RTI-4229-153],3.59,132,1.06,–
CN1C2CCC1C(C(=O)OC1CC1)C(c1ccc(I)cc1)C2 (centres unmarked) [RTI-4229-191],–,102,0.61,IC50 (serotonin transporter; [5]): 15.5 nM
"Cc1cc([C@H]2[C@@H](c3ccc(Cl)cc3)C[C@@H]3CC[C@H]2N3C)on1 [RTI-165, 3β-(4-Chlorophenyl)-2β-(3-methylisoxazol-5-yl)tropane Hydrochloride]",–,–,–,"IC50 (serotonin transporter; [6]): 572 ± 58 nM; IC50 [1, 7]: 181 ± 12 nM; IC50 (dopamine transporter; read-out: IC50 DA [3H]-WIN 35,428, Table II): 0.59 ± 0.04 nM"
CN1C2CCC1C(C(=O)OC1CC1)C(c1ccc(Cl)cc1)C2 (centres unmarked) [RTI-4229-190],–,235,0.96,IC50 (serotonin transporter; [5]): 168 nM
COC(=O)C1C(c2ccc(C)cc2)CC2CCC1N2C (centres unmarked) [RTI-4229-32],–,60,1.71,–
CCC(CC)OC(=O)C1C(c2ccc(C)cc2)CC2CCC1N2C (centres unmarked) [RTI-4229-127],–,3440,19,IC50 (serotonin transporter; [5]): 4500 nM
COC(=O)C1C(c2ccc(C)c(I)c2)CC2CCC1N2C (centres unmarked) [RTI-4229-280],6.81,484,3.12,–
COC(=O)C1CN2C3CCC2C(C1=O)C(c1ccc(Cl)cc1)C3 (centres unmarked) [RTI-4229-242],227,–,–,"IC50 ([1]; NEN=[3H] nisoxetine, read-out: NEN IC50 for inhibition of radioligand binding): 510 nM; IC50 (dopamine transporter; DA=[3H]WIN 35,428, read-out: DA IC50 for inhibition of radioligand binding): 7.57 nM"
CCOC(=O)CN1C2CCC1C(C(=O)OC)C(c1ccc(Cl)cc1)C2 (centres unmarked) [RTI-4229-251],10.1,114,1.93,–
COC(=O)[C@@H]1C2CCC(C[C@@H]1c1ccc(Cl)c(Cl)c1)N2C (some centres unmarked) [RTI-4229-111],3.13,18,0.79,–
CN1C2CCC1C(c1ccccc1)C(c1ccccc1)C2 (centres unmarked) [RTI-4229-348],–,2670,28.2,IC50 (serotonin transporter; [5]): 34700 nM
COC(=O)C1C(c2ccc(Br)cc2)CC2CCC1N2C (centres unmarked) [RTI-4229-51],240,–,1.69,–
Cc1ccc(C2CC3CCC(C2C(=O)Oc2ccccc2)N3C)cc1 (centres unmarked) [RTI-4229-120],–,5830,3.26,IC50 (serotonin transporter; [5]): 24500 nM
CC(C)c1cc([C@@H]2C3CCC(C[C@@H]2c2ccc(Cl)cc2)N3C)on1 (some centres unmarked) [RTI-4229-335],2320,954,1.19,–
COC(=O)C1C2CCC(C[C@H]1c1ccccc1)N2C (some centres unmarked) [RTI-4229-140],–,2080,101,–
Cc1ccc(C2CC3CCC(C2C(=O)Oc2cccc(C)c2)N3C)cc1 (centres unmarked) [RTI-4229-205],–,2140,8.19,IC50 (serotonin transporter; [5]): 5240 nM
COC(=O)CCN1C2CCC1C(C(=O)OC)C(c1ccc(Cl)cc1)C2 (centres unmarked) [RTI-4229-252],35.2,125,2.56,–
CC(C)OC(=O)C1C(c2ccc(Cl)cc2)CC2CCC1N2C (centres unmarked) [RTI-4229-114],–,778,1.4,IC50 (serotonin transporter; [5]): 1400 nM

SMILES,IC50 (serotonin transporter; [2]) [nM],"IC50 [1, 3] [nM]",IC50 (dopamine transporter; [4]) [nM],also measured
C=C(C)C1C(c2ccc(Cl)cc2)CC2CCC1N2C (centres unmarked) [RTI-4229-230],57.4,141,1.26,"IC50 (serotonin transporter; [8]): 57 ± 50 nM; IC50 [1, 9]: 141 ± 18 nM; IC50 (dopamine transporter; [10]): 1.28 ± 0.17 nM"
CN1C2CCC1[C@@H](CCl)[C@@H](c1ccc(Cl)cc1)C2 (some centres unmarked) [RTI-4229-108],98,129,2.64,"IC50 (serotonin transporter; [8]): 98 ± 8.7 nM; IC50 [1, 9]: 129 ± 15 nM; IC50 (dopamine transporter; [10]): 2.64 ± 0.31 nM"
CN1C2CCC1C(C(=O)N1CCCC1)C(c1ccc(Cl)cc1)C2 (centres unmarked) [RTI-4229-147],12400,3950,1.38,–
Cc1ccc(C2CC3CCC(C2CN(C)C)N3C)cc1 (centres unmarked) [RTI-4229-132],208,137,3.48,"IC50 (serotonin transporter; [8]): 208 ± 18 nM; IC50 [1, 9]: 137 ± 11 nM; IC50 (dopamine transporter; [10]): 3.48 ± 0.11 nM"
COc1ccc(-c2cc([C@@H]3C4CCC(C[C@@H]3c3ccc(Cl)cc3)N4C)on2)cc1 (some centres unmarked) [RTI-4229-346],5880,762,1.57,–
Fc1ccc(C2CC3CCC(N3)C2COc2ccc3c(c2)OCO3)cc1 (centres unmarked) [RTI-4229-274],5.62,14.4,3.96,–
Cc1cccc(OC(=O)C2C(c3ccc(Cl)cc3)CC3CCC2N3C)c1 (centres unmarked) [RTI-4229-203],–,2740,9.37,IC50 (serotonin transporter; [5]): 2150 nM
COC(=O)C1C(c2ccc(I)cc2)CC2CCC1N2C (centres unmarked) [RTI-4229-55],–,36,1.26,IC50 (serotonin transporter; [5]): 4.21 nM
Cc1noc([C@@H]2C(c3ccccc3)CC3CCC2N3C)n1 (some centres unmarked) [RTI-4229-124],33100,71000,1030,–
Cc1noc(C2C(c3ccccc3)CC3CCC2N3C)n1 (centres unmarked) [RTI-4229-87],28400,35800,204,–
CN1[C@H]2CC[C@@H]1[C@@H](CO)[C@@H](c1ccc(Cl)cc1)C2 [RTI-93],–,–,–,"IC50 (serotonin transporter; [8]): 204 ± 16 nM; IC50 [1, 9]: 43.8 ± 6.4 nM; IC50 (dopamine transporter; [10]): 1.53 ± 0.15 nM"
CN1[C@H]2CC[C@@H]1[C@@H](C(=O)O)[C@@H](c1ccc(F)cc1)C2 [RTI-104],–,–,–,"IC50 (serotonin transporter; [8]): > 100 nM; IC50 [1, 9]: > 100000 nM; IC50 (dopamine transporter; [10]): 2740 ± 141 nM"
Cc1ccc(C2CC3CCC([C@H]2c2nc(-c4ccccc4)no2)N3C)cc1 (some centres unmarked) [RTI-4229-151],1070,60,2.33,–
COC(=O)C1C2CCC(CC1c1ccc(C)c(I)c1)N2 (centres unmarked) [RTI-4229-279],1.06,74.3,5.96,"IC50 (serotonin transporter; IC50 5-HT [3H] Paroxetine, Table III): 1.06 ± 0.39 nM; IC50 ([1]; read-out: IC50 NE [3H] Nisoxetine, Table III): 74.3 ± 3.8 nM; IC50 (dopamine transporter; read-out: IC50 DA [3H] WIN 35,428, Table III): 5.98 ± 0.48 nM"
CN1[C@H]2CC[C@@H]1[C@@H](C(=O)O)[C@@H](c1ccc(Br)cc1)C2 [RTI-103],–,–,–,"IC50 (serotonin transporter; [8]): 3070 ± 208 nM; IC50 [1, 9]: 17400 nM; IC50 (dopamine transporter; [10]): 278 ± 43 nM"
CN1C2CCC1C(C(=O)Oc1ccccc1)C(c1ccc([N+](=O)[O-])cc1)C2 (centres unmarked) [RTI-4229-277],2910,5700,5.94,–
CN1[C@H]2CC[C@@H]1[C@@H](CO)[C@@H](c1ccc(F)cc1)C2 [RTI-100],–,–,–,IC50 (serotonin transporter; [8]): 4740 ± 335 nM; IC50 (dopamine transporter; [10]): 47 ± 4.6 nM
Cc1ccc(C2CC3CCC(C2C(=O)OC2CC2)N3C)cc1 (centres unmarked) [RTI-4229-193],–,544,1.68,IC50 (serotonin transporter; [5]): 1070 nM
CCc1ccc(C2CC3CCC(N3)C2C(=O)OCc2ccccc2)cc1 (centres unmarked) [RTI-4229-338],7.41,3370,1100,–

SMILES,IC50 (serotonin transporter; [2]) [nM],"IC50 [1, 3] [nM]",IC50 (dopamine transporter; [4]) [nM],also measured
COC(=O)C1C2CCC(CC1c1ccc(F)cc1)N2 (centres unmarked) [RTI-4229-142],–,18.8,4.39,IC50 (serotonin transporter; [5]): 68.6 nM
Cc1ccc([C@H]2C[C@@H]3CC[C@H]([C@H]2CN)N3C)cc1 [RTI-131],–,–,–,"IC50 (serotonin transporter; [8]): 855 ± 52 nM; IC50 [1, 9]: 120 ± 20 nM; IC50 (dopamine transporter; [10]): 10.5 ± 1.7 nM"
Cc1ccc(C2CC3CCC(C2c2ccccc2)N3C)cc1 (centres unmarked) [RTI-4229-422],1100,6090,1.96,–
Cc1noc([C@@H]2C3CCC(C[C@H]2c2ccccc2)N3C)n1 (some centres unmarked) [RTI-4229-119],40600,6990,167,–
CCc1ccc(C2CC3CCC(C2C(=O)OC)N3C)cc1I (centres unmarked) [RTI-4229-295],2.96,1350,21.3,–
CN1C2CCC1C(C(=O)Oc1ccccc1)C(c1ccc(Cl)cc1)C2 (centres unmarked) [RTI-4229-122],184,3790,1.5,–
COC(=O)CC1C(c2ccc(C)cc2)CC2CCC1N2C (centres unmarked) [RTI-4229-241],618,124,1.02,"IC50 (serotonin transporter; [8]): 618 ± 28 nM; IC50 [1, 9]: 124 ± 3.56 nM; IC50 (dopamine transporter; [10]): 1.02 ± 0.06 nM"
CNC[C@H]1[C@@H](c2ccc(C)cc2)C[C@@H]2CC[C@H]1N2C [RTI-164],–,–,–,"IC50 (serotonin transporter; [8]): 2250 ± 94 nM; IC50 [1, 9]: 280 ± 19 nM; IC50 (dopamine transporter; [10]): 13.6 ± 2.03 nM"
COC(=O)C1C(c2ccc(Cl)cc2)CC2CCC1N2C (centres unmarked) [RTI-4229-31],–,–,–,IC50 (serotonin transporter; [5]): 44.5 nM
"CN1[C@H]2CC[C@@H]1[C@@H](c1nnn[nH]1)[C@@H](c1ccc(Cl)cc1)C2 [RTI-163, 3β-(4-Chlorophenyl)-tropane-2β-tetrazole]",–,–,–,"IC50 (serotonin transporter; [6]): 5460 ± 64 nM; IC50 [1, 7]: 17400 nM"
CN1C2CCC1C(CO)C(c1ccc(I)cc1)C2 (centres unmarked) [RTI-4229-101],26,–,2.2,IC50 (serotonin transporter; [8]): 26 ± 3.2 nM; IC50 (dopamine transporter; [10]): 2.2 ± 0.19 nM
CCc1ccc(C2CC3CCC(C2C(=O)OC)N3C)cc1 (centres unmarked) [RTI-4229-83],–,–,55,IC50 (serotonin transporter; [5]): 28.4 nM
Cc1ccc(C2CC3CCC([C@@H]2c2nc(-c4ccccc4)no2)N3C)cc1 (some centres unmarked) [RTI-4229-152],–,22700,494,–
CN1C2CCC1C(C(=O)OCCc1ccc(N)c(I)c1)C(c1ccc(Cl)cc1)C2 (centres unmarked) [RTI-4229-77],–,2250,2.51,–
Cc1noc(C2C(c3ccc(Cl)cc3)CC3CCC2N3C)n1 (centres unmarked) [RTI-4229-125],2580,363,–,–
COC(=O)C1C(c2ccc(F)cc2)CC2CCC1N2C (centres unmarked) [RTI-4229-286],5060,1230,–,–
CN1[C@H]2CC[C@@H]1[C@@H](CO)[C@@H](c1ccc(Br)cc1)C2 [RTI-99],–,–,–,IC50 (serotonin transporter; [8]): 51 ± 4.6 nM; IC50 (dopamine transporter; [10]): 1.49 ± 0.06 nM
COC(=O)C1C2CCC(CC1c1ccc(C(C)C)cc1)N2 (centres unmarked) [RTI-4229-330],–,–,310,IC50 (serotonin transporter; [5]): 15.1 nM
